Test results as given in US11939307B2, “Phenylmethyl-piperazine derivatives and antiviral uses thereof” (INSTITUTE OF MEDICINAL BIOTECHNOLOGY, CHINESE ACADEMY OF …, priority 2019, dated 2024).

System: HCV
Experiment: Assay of anti-HCV activity in HCV-infected Huh7.5 cells (intracellular HCV RNA by one-step quantitative RT-PCR)
Type: cell-based
Conditions: Hepatitis C virus; compound at 1 μM; Huh7.5 cells infected with HCV; 96 hrs; intracellular HCV RNA vs viral control; read-out: inhibitory activities (inhibitory levels of the compounds against HCV replication)
Experimental: 100 μL Huh7.5 cells were seeded at a density of 1×10^5/mL in a 96-well cell culture plate and incubated in an incubator at 37° C., 5% CO2 and saturated humidity for 6 hrs. Then, while infecting Huh7.5 cells with viral solution containing HCV virus particles, the compounds of the present invention (including all specific compounds listed herein) were added at a concentration of 1 μM, respectively. After continuing incubation for 96 hrs, the total intracellular RNA was extracted separately, and the content of intracellular HCV RNA was measured by one-step quantitative RT-PCR, compared with the RNA level of the viral control, and the inhibition rate of the compounds against HCV was calculated.

CC(c1ccc(Br)cc1)N1CCN(Cc2cc(N3CCCN(C)CC3)ccc2C(F)(F)F)CC1 (centres unmarked) [Compound 1, 1-(3-((4-(1-(4-bromophenyl)ethyl)piperazin-1-yl)methyl)-4-(trifluoromethyl)phenyl)-4-methyl-1,4-diazepane]
inhibition at 1 µM: > 75%

CN1CCCN(c2ccc(C(F)(F)F)c(CN3CCN(Cc4ccc(Cl)cc4)CC3)c2)CC1 [Compound 2, 1-(3-((4-(4-chlorobenzyl)piperazin-1-yl)methyl)-4-(trifluoromethyl)phenyl)-4-methyl-1,4-diazepane]
inhibition at 1 µM: > 75%

CC(c1ccc(F)c(Cl)c1)N1CCN(Cc2cc(N3CCCN(C)CC3)ccc2C(F)(F)F)CC1 (centres unmarked) [Compound 3, 1-(3-((4-(1-(3-chloro-4-fluorophenyl)ethyl)piperazin-1-yl)methyl)-4-(trifluoromethyl)phenyl)-4-methyl-1,4-diazepane]
inhibition at 1 µM: > 75%

Cc1cc(CN2CCN(Cc3cc(N4CCCN(C)CC4)ccc3C(F)(F)F)CC2)ccc1Cl [Compound 4, 1-(3-((4-(4-chloro-3-methylbenzyl)piperazin-1-yl)methyl)-4-(trifluoromethyl)phenyl)-4-methyl-1,4-diazepane]
inhibition at 1 µM: > 75%

CCCC(c1ccc(OC)cc1)N1CCN(Cc2cc(N3CCCN(C)CC3)ccc2C(F)(F)F)CC1 (centres unmarked) [Compound 5, 1-(3-((4-(1-(4-methoxyphenyl)butyl)piperazin-1-yl)methyl)-4-(trifluoromethyl)phenyl)-4-methyl-1,4-diazepane]
inhibition at 1 µM: > 75%

CN1CCN(c2ccc(C(F)(F)F)c(CN3CCN(Cc4ccc(Cl)c(Cl)c4)CC3)c2)CC1 [Compound 6, 1-(3,4-dichlorobenzyl)-4-(5-(4-methylpiperazin-1-yl)-2-(trifluoromethyl)benzyl)piperazine]
inhibition at 1 µM: > 75%

CN1CCCN(c2ccc(C(F)(F)F)c(CN3CCC(Cc4ccc(Cl)cc4)CC3)c2)CC1 [Compound 7, 1-(3-((4-(4-chlorobenzyl)piperidin-1-yl)methyl)-4-(trifluoromethyl)phenyl)-4-methyl-1,4-diazepane]
inhibition at 1 µM: 50 to 75%

CCC(c1ccc(Br)cc1)N1CCN(Cc2cc(N(C)CCN(C)C)ccc2C(F)(F)F)CC1 (centres unmarked) [Compound 8, N^1-(3-((4-(1-(4-bromophenyl)propyl)piperazin-1-yl)methyl)-4-(trifluoromethyl)phenyl)-N^1,N^2,N^2-trimethylethan-1,2-diamine]
inhibition at 1 µM: > 75%

CC(c1ccc(Cl)cc1)N1CCN(Cc2cc(N(C)CCN(C)C)ccc2C(F)(F)F)CC1 (centres unmarked) [Compound 9, N^1-(3-((4-(1-(4-chlorophenyl)ethyl)piperazin-1-yl)methyl)-4-(trifluoromethyl)phenyl)-N^1,N^2,N^2-trimethylethan-1,2-diamine]
inhibition at 1 µM: > 75%

Cc1ccc(CN2CCN(Cc3cc(N(C)CCN(C)C)ccc3C(F)(F)F)CC2)cc1 [Compound 10, N^1,N^1,N^2-trimethyl-N^2-(3-((4-(4-methylbenzyl)piperazin-1-yl)methyl)-4-(trifluoromethyl)phenyl)ethan-1,2-diamine]
inhibition at 1 µM: 50 to 75%

CCN1CCN(c2ccc(C#N)c(CN3CCN(Cc4ccc(Cl)c(C)c4)CC3)c2)CC1 [Compound 11, 2-((4-(4-chloro-3-methylbenzyl)piperazin-1-yl)methyl)-4-(4-ethylpiperazin-1-yl)benzonitrile]
inhibition at 1 µM: 50 to 75%

N#Cc1ccc(N2CCN(C3CC3)CC2)cc1CN1CCN(Cc2ccc(Cl)cc2)CC1 [Compound 12, 2-((4-(4-chlorobenzyl)piperazin-1-yl)methyl)-4-(4-cyclopropylpiperazin-1-yl)benzonitrile]
inhibition at 1 µM: 50 to 75%

CCN(C)CCN(C)c1ccc(C#N)c(CN2CCN(C(C)c3ccc(Cl)cc3)CC2)c1 (centres unmarked) [Compound 13, 2-((4-(1-(4-chlorophenyl)ethyl)piperazin-1-yl)methyl)-4-((2-(ethyl(methyl)amino)ethyl)(methyl)amino)benzonitrile]
inhibition at 1 µM: > 75%

CC(c1ccccc1)N1CCN(Cc2cc(N3CCCC(N(C)C)C3)ccc2C#N)CC1 (centres unmarked) [Compound 14, 4-(3-(dimethylamino)piperidin-1-yl)-2-((4-(1-phenylethyl)piperazin-1-yl)methyl)benzonitrile]
inhibition at 1 µM: 50 to 75%

CC(c1ccc(C(F)(F)F)cc1)N1CCN(Cc2cc(N(C)CCN(C)C)ccc2C#N)CC1 (centres unmarked) [Compound 15, 4-((2-(dimethylamino)ethyl)(methyl)amino)-2-((4-(1-(4-(trifluoromethyl)phenyl)ethyl)piperazin-1-yl)methyl)benzonitrile]
inhibition at 1 µM: > 75%

CC(C)C(c1ccc(Cl)cc1)N1CCN(Cc2cc(N(C)CCN3CCCC3)ccc2C#N)CC1 (centres unmarked) [Compound 16, 2-((4-(1-(4-chlorophenyl)-2-methylpropyl)piperazin-1-yl)methyl)-4-(methyl(2-(pyrrolidin-1-yl)ethyl)amino)benzonitrile]
inhibition at 1 µM: > 75%

CCN(CC)CCN(C)c1ccc(C#N)c(CN2CCN(Cc3ccc(F)c(Cl)c3)CC2)c1 [Compound 17, 2-((4-(3-chloro-4-fluorobenzyl)piperazin-1-yl)methyl)-4-((2-(diethylamino)ethyl)(methyl)amino)benzonitrile]
inhibition at 1 µM: > 75%

N#Cc1ccc(NCCCn2cccc2)cc1CN1CCN(Cc2ccc(Cl)c(Cl)c2)CC1 [Compound 18, 4-((3-(1H-pyrrol-1-yl)propyl)amino)-2-((4-(3,4-dichlorobenzyl)piperazin-1-yl)methyl)benzonitrile]
inhibition at 1 µM: > 75%

CN(C)CCN(C)c1ccc(C(F)(F)F)c(CN2CCN(c3ccc(Cl)cc3)CC2)c1 [Compound 19, N^1-(3-((4-(4-chlorophenyl)piperazin-1-yl)methyl)-4-(trifluoromethyl)phenyl)-N^1,N^2,N^2-trimethylethan-1,2-diamine]
inhibition at 1 µM: > 75%

CN(C)CCN(C)c1ccc(C(F)(F)F)c(CN2CCN(c3ccc(Br)cc3)CC2)c1 [Compound 20, N^1-(3-((4-(4-bromophenyl)piperazin-1-yl)methyl)-4-(trifluoromethyl)phenyl)-N^1,N^2,N^2-trimethylethan-1,2-diamine]
inhibition at 1 µM: > 75%

CN(CC1CCCCN1C)c1ccc(C(F)(F)F)c(CN2CCN(c3ccc(Cl)cc3)CC2)c1 (centres unmarked) [Compound 21, 3-((4-(4-chlorophenyl)piperazin-1-yl)methyl)-N-methyl-N-((1-methylpiperidin-2-yl)methyl)-4-(trifluoromethyl)aniline]
inhibition at 1 µM: > 75%

CC1CN(c2ccc(Cl)cc2)CCN1Cc1cc(N2CCCN(C)CC2)ccc1C(F)(F)F (centres unmarked) [Compound 22, 1-(3-((4-(4-chlorophenyl)-2-methylpiperazin-1-yl)methyl)-4-(trifluoromethyl)phenyl)-4-methyl-1,4-diazepane]
inhibition at 1 µM: > 75%

CN1CCCN(c2ccc(C(F)(F)F)c(CN3CCN(c4ccc(Cl)cc4)CC3)c2)CC1 [Compound 23, 1-(3-((4-(4-chlorophenyl)piperazin-1-yl)methyl)-4-(trifluoromethyl)phenyl)-4-methyl-1,4-diazepane]
inhibition at 1 µM: > 75%

CN(CC1CCCN1C)c1ccc(C(F)(F)F)c(CN2CCN(c3ccc(Br)cc3)CC2)c1 (centres unmarked) [Compound 24, 3-((4-(4-bromophenyl)piperazin-1-yl)methyl)-N-methyl-N-((1-methylpyrrolidin-2-yl)methyl)-4-(trifluoromethyl)aniline]
inhibition at 1 µM: > 75%

CCN1CCCC1CN(C)c1ccc(C(F)(F)F)c(CN2CCN(c3ccc(Cl)cc3)CC2)c1 (centres unmarked) [Compound 25, 3-((4-(4-chlorophenyl)piperazin-1-yl)methyl)-N-((1-ethylpyrrolidin-2-yl)methyl)-N-methyl-4-(trifluoromethyl)aniline]
inhibition at 1 µM: > 75%

CN(C)CCN(C)c1ccc(C(F)(F)F)c(CN2CCN(c3ccc(Br)c(Cl)c3)CC2)c1 [Compound 26, N^1-(3-((4-(4-bromo-3-chlorophenyl)piperazin-1-yl)methyl)-4-(trifluoromethyl)phenyl)-N^1,N^2,N^2-trimethylethan-1,2-diamine]
inhibition at 1 µM: > 75%

CN(C)C1CCN(c2ccc(C(F)(F)F)c(CN3CCN(c4ccc(Cl)cc4)CC3)c2)CC1 [Compound 27, 1-(3-((4-(4-chlorophenyl)piperazin-1-yl)methyl)-4-(trifluoromethyl)phenyl)-N,N-dimethylpiperidin-4-amine]
inhibition at 1 µM: > 75%

FC(F)(F)c1ccc(N2CCC(N3CCCC3)CC2)cc1CN1CCN(c2ccc(Cl)cc2)CC1 [Compound 28, 1-(4-chlorophenyl)-4-(5-(4-(pyrrolidin-1-yl)piperidin-1-yl)-2-(trifluoromethyl)benzyl)piperazine]
inhibition at 1 µM: > 75%

CN(C)C1CCN(c2ccc(C(F)(F)F)c(CN3CCN(c4ccc(Cl)cc4)CC3)c2)C1 (centres unmarked) [Compound 29, 1-(3-((4-(4-chlorophenyl)piperazin-1-yl)methyl)-4-(trifluoromethyl)phenyl)-N,N-dimethylpyrrolidin-3-amine]
inhibition at 1 µM: > 75%

CN1CCN(c2ccc(C(F)(F)F)c(CN3CCN(c4ccc(Cl)cc4)CC3)c2)CC1 [Compound 30, 1-(4-chlorophenyl)-4-(5-(4-methylpiperazin-1-yl)-2-(trifluoromethyl)benzyl)piperazine]
inhibition at 1 µM: > 75%

CC1CN(c2ccc(Cl)cc2)CCN1Cc1cc(N(C)CN2CCCCC2)ccc1C(F)(F)F (centres unmarked) [Compound 31, 3-((4-(4-chlorophenyl)-2-methylpiperazin-1-yl)methyl)-N-methyl-N-(piperidin-1-ylmethyl)-4-(trifluoromethyl)aniline]
inhibition at 1 µM: > 75%

CC1CN(c2ccc(Cl)c(C(F)(F)F)c2)CCN1Cc1cc(N2CCCN(C)CC2)ccc1C(F)(F)F (centres unmarked) [Compound 32, 1-(3-((4-(4-chloro-3-(trifluoromethyl)phenyl)-2-methylpiperazin-1-yl)methyl)-4-(trifluoromethyl)phenyl)-4-methyl-1,4-diazepane]
inhibition at 1 µM: > 75%
